From patent publication US9914722B2, “Compounds for treating spinal muscular atrophy” (PTC Therapeutics Inc., priority 2012, dated 2018)
“Also recorded” adds a separate entry of the source.

Legend:
[1] = system: human SMN1 minigene full length and Δ7 mRNA (SMN1-A minigene); experiment: Human SMN1 minigene mRNA end-point semi-quantitative RT-PCR splicing assay in cultured cells; type: cell-based; details: HEK293H cells transfected with SMN1-A minigene, 7 hour, increasing concentrations, FIG. 8
From the text: Human SMN1 Minigene mRNA End-Point Semi-Quantitative RT-PCR Splicing Assay in Cultured Cells
The RT-PCR assay is used to visualize and quantify the levels of the human SMN1 minigene full length and Δ7 mRNA in primary cells and cell lines expressing the human SMN1 minigene construct treated with a test compound.
Using the procedure for the preparation of the SMN2 minigene construct described in Biological Example 1, the SMN1 version of the minigene is generated by replacing the sixth nucleotide of exon 7 (a thymine residue) of the SMN2-A minigene construct to cytosine using site-directed mutagenesis. Thus, similar to the SMN2-A minigene construct, the SMN1 minigene construct has a single adenine residue inserted after nucleic residue 48 of exon 7. The SMN1 minigene construct is referred to as SMN1-A.
Protocol. HEK293H cells (10,000 cells/well/199 μL) were transfected, using FuGENE-6 reagent, in a 96-well plate with 15 ng of the SMN1-A minigene reporter plasmid per well. Cells were incubated for 24 hours following transfection. Test compounds were serially diluted 3.16-fold in 100% DMSO to generate a 7-point concentration curve. A solution of test compound (1 μL, 200× in DMSO) was added to each test well. 1 μL DMSO was added to each control well. The plate was incubated for 7 hours in a cell culture incubator (37° C., 5% CO2, 100% relative humidity). The cells were then lysed in Cells-To-Ct lysis buffer and the lysates were stored at −80° C.
Two SMN spliced mRNA are generated from the SMN1 minigene. The term “SMN1 minigene FL” refers to the first spliced product containing exon 7, corresponding to full length SMN1 mRNA. The term “SMN1 minigene Δ7” refers to the second product lacking exon 7.
SMN1 minigene FL and SMN1 minigene Δ7 mRNA are amplified using the primers in Table 11. Primer SMN Forward C (SEQ ID NO. 11) hybridizes to a nucleotide sequence in exon 6 (nucleotide 43 to nucleotide 63), primer SMN Reverse A (SEQ ID NO. 2) hybridizes to a nucleotide sequence in the coding sequence of Firefly luciferase. The combination of these two oligonucleotides detects only SMN1 or SMN2 minigenes (RT-PCR) and will not detect endogenous SMN1 or SMN2 genes. Since the HEK293H cells used in Example 16 were transfected with only the human SMN1 minigene, RT-PCR can visualize and quantify only SMN1 minigene FL and SMN1 minigene Δ7 mRNA.
(§1) To synthesize cDNA, 5 μL of lysate, 4 μL of 5× iScript reaction mix, 1 μL of reverse transcriptase, and 10 μL of water are combined and incubated 5 min at 25° C. followed by 30 min at 42° C., followed by 5 min at 85° C. The cDNA solution is stored at −20° C.
To perform endpoint PCR, 5 μL of cDNA, 0.2 μL of 100 μM forward primer, 0.2 μL of 100 μM reverse primer, and 22.5 μL of polymerase super mix are combined in a 96 well semiskirted PCR plate. […]

[2] = system: SMN2 full length and Δ7 mRNA; experiment: Endogenous SMN2 mRNA end-point semi-quantitative RT-PCR splicing assay in cultured cells; type: cell-based, human; details: 24 hr, FIG. 5; for SMN2 FL mRNA (gel band) / SMN2 Δ7 mRNA (gel band): GM03813 Type 1 SMA patient fibroblasts, increasing concentrations; for SMN2 alternative splicing: Type 1 SMA patient fibroblasts, rising concentrations
Procedure: Endogenous SMN2 mRNA End-Point Semi-Quantitative RT-PCR Splicing Assay in Cultured Cells
The endpoint reverse transcription-PCR splicing assay is used to visualize and quantify the levels of the SMN2 full length and Δ7 mRNA in primary cells and cell lines containing the SMN2 gene treated with a test compound.
Protocol. GM03813 SMA patient cells (5,000 cells/well) are seeded in 200 μL of cell culture medium (DMEM plus 10% FBS) in 96-well flat-bottom plates and the plate is immediately swirled to ensure proper dispersal of cells, forming an even monolayer of cells. Cells are allowed to attach for at least 4-6 hrs. Test compounds are serially diluted 3.16-fold in 100% DMSO to generate a 7-point concentration curve. A solution of test compound (1 μL, 200× in DMSO) is added to each test well and 1 μL DMSO is added to each control well. The plate is incu bated for 24 hrs in a cell culture incubator (37° C., 5% CO2, 100% relative humidity). The cells are then lysed in Cells-To-Ct lysis buffer and the lysate is stored at −80° C.
SMN FL and Δ7 mRNA are identified using the following primers in Table 6. These primers hybridize to a nucleotide sequence in exon 6 (SMN Forward C, SEQ ID NO. 11) (nucleotide 43 to nucleotide 63) and exon 8 (SMN Reverse C, SEQ ID NO. 12) (nucleotide 51 to nucleotide 73) common to human SMN1 and SMN2 mRNA. Since the SMA patient cells used in Example 4 contain only the SMN2 gene, RT-PCR can visualize and quantify only SMN2 full-length and SMN2 Δ7 mRNA.
as §1
To perform endpoint PCR, 5 μL of cDNA, 0.2 μL of 100 μM forward primer, 0.2 μL of 100 μM reverse primer, and 22.5 μL of polymerase super mix are combined in a 96 well semiskirted PCR plate. PCR is carried out at the following temperatures for the indicated time: Step 1: 94° C. (2 min), Step 2: 94° C. (30 sec), Step 3: 55° C. (30 sec), Step 4: 68° C. (1 min), then repeat Steps 2 to 4 for a total of 33 cycles, then hold at 4° C.
10 μL of each PCR sample is electrophoretically separated on a 2% agarose E-gel for 14 minutes stained with double-stranded DNA (dsDNA) staining reagents (e.g., ethidium bromide) and visualized using a gel imager.

Row | Structure (SMILES) | SMN1 minigene FL mRNA (gel band) [1] | SMN1 minigene Δ7 mRNA (gel band) [1] | SMN2 FL mRNA (gel band) [2] | SMN2 Δ7 mRNA (gel band) [2] | SMN2 alternative splicing [2]
1 | C[C@@H]1CN(c2ccc3oc(-c4cn5ccccc5n4)cc(=O)c3c2)C[C@H](C)N1 [Cpd 17, 6-[(3R,5S)-3,5-dimethylpiperazin-1-yl]-2-(imidazo[1,2-a]pyridin-2-yl)-4H-chromen-4-one] | progressively more SMN1 minigene FL mRNA; also recorded: dose dependent increase in SMN1 minigene full-length mRNA | less SMN1 minigene Δ7 mRNA; also recorded: dose dependent decrease in SMN1 minigene Δ7 mRNA | progressively more SMN2 FL mRNA | less SMN2 Δ7 mRNA | correction of SMN2 alternative splicing
2 | COc1ccc(-c2cc(=O)c3cc(N4CCN[C@@H](C)C4)ccc3o2)cc1F [Cpd 38, 2-(3-fluoro-4-methoxyphenyl)-6-[(3S)-3-methylpiperazin-1-yl]-4H-chromen-4-one] | progressively more SMN1 minigene FL mRNA; also recorded: dose dependent increase in SMN1 minigene full-length mRNA | less SMN1 minigene Δ7 mRNA; also recorded: dose dependent decrease in SMN1 minigene Δ7 mRNA | progressively more SMN2 FL mRNA | less SMN2 Δ7 mRNA | correction of SMN2 alternative splicing
